# Measured values published in the supplement of paper PMC10307832.
# How the values were obtained:
# Experiment in all cases: relative viability (nuclei count vs DMSO), 5 days (fraction); higher = more cells survive
# Sulindac + Phenformin = compound: CC1=C(CC(=O)O)c2cc(F)ccc2/C1=C\c1ccc([S+](C)[O-])cc1 [Sulindac] + N=C(N)NC(=N)NCCc1ccccc1 [Phenformin] (partner 250 µM)
# How it was run: (§1)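 Each reported value is a median over duplicate plates. It expresses relative viability: treated-well nuclei count divided by vehicle-well nuclei count. Lung cancer cell lines in 1536-well plates were dosed by pin tool a day after seeding, alone with one drug or with a fixed anchor-drug dose plus five library-drug doses (not always all listed) in √10 steps, and nuclei were counted after 5 days.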
# Sulindac + Decitabine = compound: CC1=C(CC(=O)O)c2cc(F)ccc2/C1=C\c1ccc([S+](C)[O-])cc1 [Sulindac] + Nc1ncn([C@H]2C[C@H](O)[C@@H](CO)O2)c(=O)n1 [Decitabine] (partner 2 µM)
# How it was run: as §1
# [1] = compound: CN[C@@H]1C[C@H]2O[C@@](C)([C@@H]1OC)n1c3ccccc3c3c4c(c5c6ccccc6n2c5c31)C(=O)NC4 [Staurosporine] + Cc1nc(NC(=O)N2CCC[C@H]2C(N)=O)sc1-c1ccnc(C(C)(C)C(F)(F)F)c1 [Alpelisib] (partner 2 µM)
# How it was run: as §1
# [2] = compound: O=c1[nH]cc(F)c(=O)[nH]1 [5-Fluorouracil] + CS(=O)(=O)CCNCc1ccc(-c2ccc3ncnc(Nc4ccc(OCc5cccc(F)c5)c(Cl)c4)c3c2)o1 [Lapatinib] (partner 2 µM)
# How it was run: as §1
Cell Line,relative viability (Sulindac + Phenformin; first compound 0.08 µM),relative viability (Sulindac + Phenformin; first compound 0.253 µM),relative viability (Sulindac + Phenformin; first compound 0.8 µM),relative viability (Sulindac + Phenformin; first compound 2.53 µM),relative viability (Sulindac + Phenformin; first compound 8 µM),relative viability (Sulindac + Decitabine; first compound 0.08 µM),relative viability (Sulindac + Decitabine; first compound 0.253 µM),relative viability (Sulindac + Decitabine; first compound 0.8 µM),relative viability (Sulindac + Decitabine; first compound 2.53 µM),relative viability (Sulindac + Decitabine; first compound 8 µM),relative viability ([1]; first compound 0.005 µM),relative viability ([1]; first compound 0.01581 µM),relative viability ([1]; first compound 0.05 µM),relative viability ([1]; first compound 0.1581 µM),relative viability ([1]; first compound 0.5 µM),relative viability ([2]; first compound 0.02 µM),relative viability ([2]; first compound 0.2 µM),relative viability ([2]; first compound 0.6325 µM),relative viability ([2]; first compound 2 µM)
PC-14,0.571,0.403,0.403,0.537,0.853,0.25,0.274,0.223,0.215,0.257,0.693,0.452,0.172,0.0738,0.0496,0.305,0.433,0.327,0.292
HARA,0.56,0.523,0.29,0.468,0.553,0.704,0.492,0.398,0.46,0.521,0.532,0.173,0.142,0.0954,0.0999,0.922,0.892,0.657,0.568
NCI-H23,0.819,–,0.61,0.819,0.824,0.298,0.331,0.319,0.324,0.319,0.437,0.317,0.218,0.206,0.131,1.11,1.09,0.545,0.268
LCLC-97TM1,0.497,0.518,0.447,0.441,0.486,0.208,0.263,0.225,0.247,0.232,0.205,0.18,0.166,0.185,0.179,0.693,0.857,0.617,0.272
LC-2-ad,0.513,0.61,0.427,0.516,0.697,0.954,0.945,0.57,0.823,0.9,0.178,0.338,0.237,0.0434,0.0442,1.05,0.975,0.255,0.264
NCI-H1666,0.564,0.629,0.561,0.529,0.631,0.679,0.73,0.668,0.696,0.713,0.582,0.371,0.375,0.177,0.175,0.726,0.418,0.378,0.318
EKVX,0.244,0.214,0.211,0.218,0.226,0.312,0.316,0.305,0.341,0.352,0.729,0.409,0.177,0.214,0.122,–,0.184,0.15,0.147
SW 1573,0.458,0.365,–,0.388,0.509,0.688,0.538,0.443,0.368,0.641,0.45,0.299,0.144,0.14,0.148,1.09,1.32,0.546,0.885
